Test results from patent publication US20180110824A1, “Macrocyclic Modulators of the Ghrelin Receptor” (Ocera Therapeutics, Inc., priority 2016, published 2018).
Read-outs that look alike come from different tables or passages of the source.

How the values were obtained:
[1] = target: T1, human growth hormone secretagogue receptor (hGHS-R1a) (Homo sapiens, UniProt Q92847); assay: Competitive radioligand binding assay (ghrelin receptor), [125I]-ghrelin displacement on GHS-R/HEK 293 membranes; conditions: for Ki: read-out: Ki
T1 construct: purchased PerkinElmer BioSignal #RBHGHSM; host or cells: HEK-293, stably transfected

[2] = target: T2, human ghrelin receptor (hGHS-R1a) (Homo sapiens, UniProt Q92847); assay: Aequorin functional assay (ghrelin receptor), CHO-K1 cells co-expressing Gα16 and aequorin; assay type: cell-based; conditions: read-out: EC50
T2 construct: host or cells: CHO-K1 co-expressing Gα16 and mitochondrially targeted aequorin
In short: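 CHO-K1 cells expressing hGHS-R1a, Gα16 and mitochondrial aequorin, loaded overnight at rt with 5 μM coelenterazine, then challenged in DMEM/0.1% BSA pH 7.0 with compound at 0.001–10 μM (DMSO <0.6%).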

T1 sequence (Q92847 whole entry): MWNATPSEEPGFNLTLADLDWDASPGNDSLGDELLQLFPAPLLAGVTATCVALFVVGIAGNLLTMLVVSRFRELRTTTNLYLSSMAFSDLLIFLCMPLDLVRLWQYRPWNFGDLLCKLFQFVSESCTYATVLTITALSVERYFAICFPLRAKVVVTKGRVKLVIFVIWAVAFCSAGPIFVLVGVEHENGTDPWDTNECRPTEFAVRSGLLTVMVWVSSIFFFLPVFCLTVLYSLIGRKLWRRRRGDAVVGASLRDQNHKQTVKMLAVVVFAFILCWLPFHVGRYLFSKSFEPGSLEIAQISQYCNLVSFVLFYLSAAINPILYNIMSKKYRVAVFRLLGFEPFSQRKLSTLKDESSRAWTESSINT
T2 sequence (Q92847 whole entry): as above

Compound: CC1C(=O)NC(Cc2ccc(F)cc2)C(=O)NCCCc2ccccc2O[C@H](C)CNC(C2CC2)C(=O)N1C (some centres unmarked) [compound 298]
- Ki ([1]; Table 3B, binding activity at the human ghrelin receptor): 10 to 100 nM
- Ki ([1]; Table 4, TFA salts unless otherwise noted): 10 to 100 nM
- binding to hGHS-R1a ([1]; representative binding inhibition curve, FIG. 10): binds competitively, reversibly, and with high affinity
- EC50 ([2]; Table 4, functional (agonist) activity, TFA salts unless otherwise noted): 1 to 100 nM
- EC50 ([2]; activation of hGHS-R1a, FIG. 11): 25 nM
